Laboratory results taken from US20120213826A1, “Use of Pro-Inflammatory Compounds for Promoting Bone Formation” (Imperial Innovations Limited, priority 2009, published 2012).
“Also recorded” adds a separate entry of the source. Read-outs that look alike come from different tables or passages of the source. Each block holds one molecule with its values, some of them ahead of it.

How the values were obtained:
[1] = tested on: murine open tibial fracture; assay: Murine open tibial fracture model, periosteally stripped (histology, CT scans); type: in vivo, C57BI/6 mice; conditions: for fracture healing: 1-MT, 20 μl in PBS at fracture site; for healing of tibial fractures by CT scans: 28 days post injury, local administration at fracture site (TNFα 50 ng/kg and HMGB1 at time of fracture and 24 hr later) (FIG. 19, 30)
Aqueous solubility = type: physicochemical
[2] = tested on: muscle-derived stromal cells (MDSC); assay: ALP quantification assay, osteogenic differentiation of cultured MDSC; type: cell-based, human; conditions: for ALP expression (osteogenic differentiation) in cultured MDSC: Example 1, exogenous recombinant human factor added to MDSC culture (FIG. 8, 10, 12); for ALP expression by MDSC: 7 days in human serum-containing media with recombinant human factor (FIG. 26B, 26D)
From the text: The immunoglobulin isotype controls used included IgG^1 for AbBMP-2/4 and AbTGF-β, and IgG^2B for Ab-BMP-7. B: human serum containing culture medium with the addition of recombinant human BMPs and TGF-β. C: fracture supernatant±antibody neutralization of TNF-α, IL-6 and IL-1β. The IgG^1 immunoglobulin was used as the antibody isotype control. D: human serum-containing culture medium with the addition of recombinant human TNF-α, IL-6 and IL-1β. E: Alizarin red staining for bone nodule formation after culture of 1×10^4 MDSC in human serum-containing media. […] A representative image from a single well is shown. All experiments were performed 3 times, in triplicate (n=3) using MDSC from 3 donors. Values for A-D represent a mean from 3 experiments ±SEM, using supernatant from 3 donors in A and C. *: P<0.05; **: P<0.01; ***: P<0.001; 1-way ANOVA with Bonferroni's multiple comparison test in A and C and with Dunnett's multiple comparison test against the media only control in B and D.
To investigate the fracture-derived stimulus for osteogenic differentiation of MDSC, fracture supernatants were prepared using human tibial fracture fragments obtained within 24 hours of injury (ethics approval number—COREC No: 07/Q0411/30). […] Bone fragments were obtained from either fractured tibial fragments or non-traumatically cut bone slices. These were then incubated in serum free DMEM+Glutamax media for 24 hours. The supernatant was then filter sterilised to remove any contaminants and cellular debris. MDSC were then cultured in the presence of either control media, osteogenic media, fracture supernatant or non-fracture supernatant for 7 days before lysis and quantification of ALP levels.
1×10^4 human MDSC were added to wells of a 96 well plate in triplicate. At 24 hrs the media was pipetted off and replaced by 200 μl test media. The media was changed every 3 days. At 7 days the media was removed and the cells lysed in 20 μl NP-40 lysis buffer. An ALP quantification assay (WAKO pure chemical Ltd.) was used. Calibration solution from the assay was serially diluted to make concentrations of 0.25, 0.125 and 0.0625 mmol/L. To empty wells, 20 μl of each calibration solution was added. To another, dH2O was added. 100 μl reagent (1 taBIet per 5 ml buffer solution) was added to each well, and incubated at 37° C. for 20 minutes. 80 μl stop solution was then added to each well and the plate was read using an ELISA spectrometer at 405 nm wavelength. The concentration of ALP in the test wells was extrapolated from the standard curve.

[3] = tested on: muscle-derived stromal cells (MDSC); assay: Bone nodule formation by MDSC (alizarin red staining); type: cell-based, human; conditions: Example 3; recombinant cytokine at optimal dose for first 3 days, human serum-containing media (FIG. 26E)
From the text: FIG. 26 TNF-α and IL-6 promote osteogenic differentiation of MDSC A-D: ALP quantification assays after culture of 1×10^4 MDSC for 7 days in a 96-well plate in triplicate with: A: fracture supernatant, ±antibody neutralization of BMPs 2/4 7 and to TGF-β. The immunoglobulin isotype controls used included IgG^1 for AbBMP-2/4 and AbTGF-β, and IgG^2B for Ab-BMP-7. B: human serum containing culture medium with the addition of recombinant human BMPs and TGF-β. C: fracture supernatant±antibody neutralization of TNF-α, IL-6 and IL-1β. The IgG^1 immunoglobulin was used as the antibody isotype control. D: human serum-containing culture medium with the addition of recombinant human TNF-α, IL-6 and IL-1β. E: Alizarin red staining for bone nodule formation after culture of 1×10^4 MDSC in human serum-containing media. Recombinant human cytokine at the optimal dose indicated by D, was added for the first 3 days ONLY, and the cells were subsequently cultured in media for 32 days. A representative image from a single well is shown. All experiments were performed 3 times, in triplicate (n=3) using MDSC from 3 donors. Values for A-D represent a mean from 3 experiments ±SEM, using supernatant from 3 donors in A and C. *: P<0.05; **: P<0.01; ***: P<0.001; 1-way ANOVA with Bonferroni's multiple comparison test in A and C and with Dunnett's multiple comparison test against the media only control in B and D.
1×10^4 MDSC were added to wells of a 24-well plate in triplicate. The cells were cultured for 35-40 days in osteogenic media (DMEM with 10% fetal calf serum and 1% penicillin/streptomycin also containing 100 nM dexamethasone (SIGMA), 1 mM β-glycerol phosphate and […] ascorbic acid), supernatant or media containing recombinant cytokines (with one media change per week) the cells were fixed with 2 ml 10% neutral buffered formalin at room temperature for 15 min. The plate was then washed twice with excess PBS. 1 ml filtered 40 mM alizarin red solution (pH 4.1) was added to each well and agitated at room temperature for 30 minutes. The excess dye was then aspirated and the plate washed four times in distilled water with gentle agitation. Finally, the plates were turned upside-down on paper to dry. Bone nodules appeared red under light microscopy. Images were taken at 20 times magnification and performed as above.

[4] = tested on: muscle-derived stromal cells (MDSC); assay: MDSC migration through a transwell membrane; type: cell-based, human; conditions: for migration of MDSC: 8 μm transwell, 36 hours, recombinant cytokine in human serum-containing media (FIG. 27B)
Experimental: Migration of 1×10^4 MDSC through an 8 μm pore transwell membrane over 36 hours, in response to fracture supernatant with the addition of AbTNF-α, AbIL-6 and AbIL-1β. The IgG^1 immunoglobulin was used as the antibody control. B: Migration in response to rhTNF-α, rhIL-6 and rhIL-1β in human serum-containing media. Results represent change in cell number, expressed as a percentage of the supernatant, or media only control. Each experiment was performed 3 times (n=3) using 3 fracture supernatants (in A). Results represent mean of 3 experiments ±SEM. *: P<0.05; **: P<0.01; ***: P<0.001; 1-way ANOVA with Bonferroni's multiple comparison test.
MDSC must be recruited to the fracture site from adjacent muscle. Next we assessed the efficacy of the pro-inflammatory cytokines in attracting MDSC in vitro using a transwell assay. 1×10^4 MDSC were seeded onto a 8 μm transwell membrane in serum free media. Next day, the transwell membrane was added to a well containing 10% human serum-containing media +IL-1β, IL6 and TNFα at the end concentrations shown. At 24 hrs the membrane was cleared of any cells on the seeded side, fixed and stained. IL-1β appeared not promote MDSC chemotaxis.
500 μl serum free media was added to each well of a 24 well plate. 8 μm pore transwell membranes (VWR International Ltd) were then added to the wells. 1×10^4 MDSC in serum free media were added to the upper chamber of each transwell membrane. At 12 hours the serum-free media was replaced with test or control media or supernatant and incubated at 37° C. for 36 hours. The upper chambers were then cleared of cells and cell debris using a cotton bud, in sweeping motions. The membrane was then washed and fixed using 10% neutral buffered formalin for 1 hour. After washing, the membrane was then added to a 1% crystal violet solution for 1 hour. After further washing, the membranes were viewed under light microscopy at 20 times magnification, using an Olympus CKX41 microscope with a QICAM camera, (QIMAGING, GT vision LLC). The number of cells present on the underside of the transwell membrane in any random field was counted 3 times and the mean calculated. Cell migration was calculated against the supernatant or human serum-containing (control) media and the number expressed as a percentage relative to the control media.

[5] = tested on: muscle-derived stromal cells (MDSC); assay: MDSC proliferation (CellTiter-Glo luminescent cell viability assay); type: cell-based, human; conditions: Example 3; for MDSC proliferation: 1, 3 and 5 days in human serum-containing media ± recombinant human cytokine (FIG. 28); for cell proliferation in excess of the media-only control: recombinant human BMPs, data not shown
Experimental: CellTiter-Glo® luminescent cell viability assay for MDSC in culture with A: TNF-α, B: IL-6 and C: IL-1β. 2.5×10^3 cells were cultured in triplicate for 1, 3 and 5 days in human serum-containing media ± recombinant human cytokine at the concentration indicated. The number of viaBIe cells in culture was determined using the assay, where luminescent signal is directly proportional to the concentration of ATP from viaBIe cells.
In order to test this hypothesis, proliferation of MDSC in human serum-containing media with rhTNF-α, rhIL-6 and rhIL-1β was tested using the CellTiter-Glo® luminescent cell viability assay was used (Promega Corp., Madison, Wis.).
This method assays the number of viaBIe cells in culture, by measuring adenosine triphosphate (ATP), where the luminescent signal is directly proportional to the number of ATP present.

- aqueous solubility (Aqueous solubility): poorly soluBIe in aqueous solutions
- aqueous solubility (Aqueous solubility; listed as 1MT): poor aqueous solubility
Molecule: Cn1cc(C[C@H](N)C(=O)O)c2ccccc21 [1-MT, 1-methyl tryptophan, reference compound]
- fracture healing ([1]; histology day 14 (FIG. 21)): accelerated fracture healing
- fracture healing ([1]; histology day 14 (FIG. 21), listed as 1-methyl tryptophan): dose dependent acceleration of fracture healing
- healing of tibial fractures by CT scans [1]: trend to improved healing but did not reach statistical significance
- dose of greatest response (maximal dose tested) ([1]; FIG. 21): 500 µg/mL
- concentrations giving accelerated fracture healing ([1]; within the range tested (0.5-5 mg/kg), histology day 14 (FIG. 21)): ≥ 500 µg/mL

Molecule: IL-1β: pro-inflammatory cytokine, recombinant human IL-1β
- ALP expression (osteogenic differentiation) in cultured MDSC [2]: dose-dependent stimulation of ALP expression
- concentration of peak ALP expression by MDSC ([2]; Example 3, variable between donor cell populations (FIG. 26D)): 100 µg/mL
- bone nodule formation by MDSC [3]: did not stimulate bone nodule formation
- migration of MDSC ([4]; Example 3): did not appear to promote MDSC migration
- MDSC proliferation [5]: do not promote MDSC proliferation

Molecule: IL-6: pro-inflammatory cytokine, recombinant human IL-6
- ALP expression (osteogenic differentiation) in cultured MDSC [2]: dose-dependent stimulation of ALP expression
- ALP expression by MDSC ([2]; Example 3): increased with the dose through the range tested
- bone nodule formation by MDSC [3]: promoted de novo bone formation
- chemotaxis / migration of MDSC ([4]; Example 1, transwell, 10% human serum-containing media, 24 hrs (FIG. 14)): promote chemotaxis of MDSC
- migration of MDSC ([4]; Example 3): chemo attractant for MDSC
- optimal concentration for MDSC migration ([4]; Example 3, transwell, 36 hours (FIG. 27B)): 1 ng/mL
- MDSC proliferation [5]: do not promote MDSC proliferation

Molecule: TGF-β
- ALP expression (osteogenic differentiation) in cultured MDSC [2]: promotes osteogenic differentiation
- ALP expression by MDSC ([2]; Example 3): did not induce ALP expression

B1: BMP4: recombinant human bone morphogenetic protein 4 (protein, UniProt P12644 293-408, looked up)
Bone morphogenetic protein 4: SPKHHSQRARKKNKNCRRHSLYVDFSDVGWNDWIVAPPGYQAFYCHGDCPFPLADHLNSTNHAIVQTLVNSVNSSIPKACCVPTELSAISMLYLDEYDKVVLKNYQEMVVEGCGCR
- ALP expression by MDSC ([2]; Example 3): did not induce ALP expression
- cell proliferation in excess of the media-only control [5]: did not induce cell proliferation

B2: IFN-γ: proinflammatory cytokine, recombinant human Interferon-gamma (protein, UniProt P01579 24-161, looked up)
Interferon gamma: QDPYVKEAENLKKYFNAGHSDVADNGTLFLGILKNWKEESDRKIMQSQIVSFYFKLFKNFKDDQSIQKSVETIKEDMNVKFFNSNKKKRDDFEKLTNYSVTDLNVQRKAIHELIQVMAELSPAAKTGKRKRSQMLFRG
- ALP expression (osteogenic differentiation) in cultured MDSC [2]: modest dose-dependent stimulation of osteogenesis

B3: BMP7: recombinant human bone morphogenetic protein 7 (protein, UniProt P18075 293-431, looked up)
Bone morphogenetic protein 7: STGSKQRSQNRSKTPKNQEALRMANVAENSSSDQRQACKKHELYVSFRDLGWQDWIIAPEGYAAYYCEGECAFPLNSYMNATNHAIVQTLVHFINPETVPKPCCAPTQLNAISVLYFDDSSNVILKKYRNMVVRACGCH
- ALP expression (osteogenic differentiation) in cultured MDSC [2]: promotes osteogenic differentiation
- ALP expression by MDSC ([2]; Example 3): did not induce ALP expression
- cell proliferation in excess of the media-only control [5]: did not induce cell proliferation

B4: HMGB1: damage associated molecular pattern molecule (alarmin), RAGE ligand protein (protein, UniProt P09429 1-215, looked up)
High mobility group protein B1: MGKGDPKKPRGKMSSYAFFVQTCREEHKKKHPDASVNFSEFSKKCSERWKTMSAKEKGKFEDMAKADKARYEREMKTYIPPKGETKKKFKDPNAPKRPPSAFFLFCSEYRPKIKGEHPGLSIGDVAKKLGEMWNNTAADDKQPYEKKAAKLKEKYEKDIAAYRAKGKPDAAKKGVVKAEKSKKKKEEEEDEEDEEDEEEEEDEEDEDEEEDDDDE
- healing of tibial fractures by CT scans [1]: statistically significantly enhanced healing; also recorded: accelerates fracture healing
